Assay results reported in ChEMBL document CHEMBL1201862, “PubChem BioAssay data set” (2004).
Calls of active or inactive are those of the source.

Tests used:
Aminopeptidase N = biological target: T1, Aminopeptidase N (Plasmodium falciparum FcB1/Columbia, UniProt O96935); assay: malaria alanyl aminopeptidase activity blockers – biochemical, fluorogenic H-Leu-NHMec substrate, 1536-well (AID 1445); set-up: species or system Plasmodium falciparum 3D7, 3D7
T1 sequence (O96935 whole entry): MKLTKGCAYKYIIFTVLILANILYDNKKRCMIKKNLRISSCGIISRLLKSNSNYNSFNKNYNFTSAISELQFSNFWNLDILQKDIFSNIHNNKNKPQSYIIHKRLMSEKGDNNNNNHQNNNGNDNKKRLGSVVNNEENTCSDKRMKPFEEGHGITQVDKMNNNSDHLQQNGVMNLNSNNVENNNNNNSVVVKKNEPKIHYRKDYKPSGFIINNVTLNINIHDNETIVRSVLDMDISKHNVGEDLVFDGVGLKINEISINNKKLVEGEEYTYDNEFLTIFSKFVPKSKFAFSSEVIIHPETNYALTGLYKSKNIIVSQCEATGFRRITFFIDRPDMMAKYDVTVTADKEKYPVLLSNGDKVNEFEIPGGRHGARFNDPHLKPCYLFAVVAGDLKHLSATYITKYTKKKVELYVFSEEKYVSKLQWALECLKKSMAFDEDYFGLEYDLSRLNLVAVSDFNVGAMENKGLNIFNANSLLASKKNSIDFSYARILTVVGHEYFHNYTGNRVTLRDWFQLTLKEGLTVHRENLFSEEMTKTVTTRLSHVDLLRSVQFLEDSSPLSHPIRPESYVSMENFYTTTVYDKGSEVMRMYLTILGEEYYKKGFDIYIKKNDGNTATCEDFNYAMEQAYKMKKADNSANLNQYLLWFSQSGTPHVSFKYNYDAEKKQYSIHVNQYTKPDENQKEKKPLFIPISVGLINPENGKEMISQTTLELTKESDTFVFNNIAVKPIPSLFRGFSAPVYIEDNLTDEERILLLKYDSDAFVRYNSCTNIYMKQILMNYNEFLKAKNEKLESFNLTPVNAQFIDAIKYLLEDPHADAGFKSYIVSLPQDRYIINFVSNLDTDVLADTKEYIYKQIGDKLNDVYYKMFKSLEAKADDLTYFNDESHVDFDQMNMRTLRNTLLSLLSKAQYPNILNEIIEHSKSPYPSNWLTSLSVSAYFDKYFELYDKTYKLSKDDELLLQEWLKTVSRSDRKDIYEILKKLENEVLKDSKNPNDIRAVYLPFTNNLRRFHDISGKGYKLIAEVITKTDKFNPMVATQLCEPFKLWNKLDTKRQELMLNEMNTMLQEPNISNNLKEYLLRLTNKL

Procathepsin L = Procathepsin L (Homo sapiens, UniProt P07711); assay: CTSL1 protease inhibition – biochemical, QFRET, 1536-well, counter-screen for M1/M17 aminopeptidase inhibitor project, dose response (AID 2214)
Aspartyl aminopeptidase = biological target: T2, Aspartyl aminopeptidase (Plasmodium falciparum 3D7, UniProt Q8I2J3); assay: Counterscreen for inhibitors of M1 and M17 aminopeptidases: QFRET-based biochemical high throughput dose response assay for inhibitors of the Plasmodium falciparum M18 Aspartyl Aminopeptidase (PFM18AAP). [Related PubChem assays: 1619 (Screening assay (M17LAP inhibitors).), 1445 (Screening assay (M1AAP inhibitors).)]
T2 sequence (Q8I2J3 whole entry): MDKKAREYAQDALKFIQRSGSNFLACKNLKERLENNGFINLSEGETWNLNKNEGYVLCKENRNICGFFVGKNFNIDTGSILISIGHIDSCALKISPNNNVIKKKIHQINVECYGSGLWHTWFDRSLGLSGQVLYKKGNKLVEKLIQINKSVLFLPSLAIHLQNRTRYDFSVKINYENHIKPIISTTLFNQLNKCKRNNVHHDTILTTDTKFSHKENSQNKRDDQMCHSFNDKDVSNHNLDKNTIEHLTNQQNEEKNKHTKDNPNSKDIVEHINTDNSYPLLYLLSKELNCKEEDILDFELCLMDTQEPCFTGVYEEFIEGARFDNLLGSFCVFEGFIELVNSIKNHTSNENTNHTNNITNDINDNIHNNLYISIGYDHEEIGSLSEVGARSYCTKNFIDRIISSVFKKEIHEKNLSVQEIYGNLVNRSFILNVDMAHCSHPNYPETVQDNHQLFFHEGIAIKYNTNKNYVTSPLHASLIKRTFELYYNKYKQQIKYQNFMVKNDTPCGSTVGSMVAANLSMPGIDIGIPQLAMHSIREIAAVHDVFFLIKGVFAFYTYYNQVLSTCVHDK

[1] = blockers of HIV-1 envelope-mediated cell-cell fusion – cherry-pick, dose response (AID 652057); format: functional, cell-based
[2] = biological target: T3, Short transient receptor potential channel 4 (Mus musculus, UniProt Q9QUQ5); assay: block of DAMGO-driven TRPC4 calcium entry – cell-based, HEK293 TRPC4/mu-opioid, Fluo-4 calcium, dose response (AID 434942); format: functional;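 further: potency of inhibitors blocking the TRPC4 calcium response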
T3 sequence (Q9QUQ5 whole entry): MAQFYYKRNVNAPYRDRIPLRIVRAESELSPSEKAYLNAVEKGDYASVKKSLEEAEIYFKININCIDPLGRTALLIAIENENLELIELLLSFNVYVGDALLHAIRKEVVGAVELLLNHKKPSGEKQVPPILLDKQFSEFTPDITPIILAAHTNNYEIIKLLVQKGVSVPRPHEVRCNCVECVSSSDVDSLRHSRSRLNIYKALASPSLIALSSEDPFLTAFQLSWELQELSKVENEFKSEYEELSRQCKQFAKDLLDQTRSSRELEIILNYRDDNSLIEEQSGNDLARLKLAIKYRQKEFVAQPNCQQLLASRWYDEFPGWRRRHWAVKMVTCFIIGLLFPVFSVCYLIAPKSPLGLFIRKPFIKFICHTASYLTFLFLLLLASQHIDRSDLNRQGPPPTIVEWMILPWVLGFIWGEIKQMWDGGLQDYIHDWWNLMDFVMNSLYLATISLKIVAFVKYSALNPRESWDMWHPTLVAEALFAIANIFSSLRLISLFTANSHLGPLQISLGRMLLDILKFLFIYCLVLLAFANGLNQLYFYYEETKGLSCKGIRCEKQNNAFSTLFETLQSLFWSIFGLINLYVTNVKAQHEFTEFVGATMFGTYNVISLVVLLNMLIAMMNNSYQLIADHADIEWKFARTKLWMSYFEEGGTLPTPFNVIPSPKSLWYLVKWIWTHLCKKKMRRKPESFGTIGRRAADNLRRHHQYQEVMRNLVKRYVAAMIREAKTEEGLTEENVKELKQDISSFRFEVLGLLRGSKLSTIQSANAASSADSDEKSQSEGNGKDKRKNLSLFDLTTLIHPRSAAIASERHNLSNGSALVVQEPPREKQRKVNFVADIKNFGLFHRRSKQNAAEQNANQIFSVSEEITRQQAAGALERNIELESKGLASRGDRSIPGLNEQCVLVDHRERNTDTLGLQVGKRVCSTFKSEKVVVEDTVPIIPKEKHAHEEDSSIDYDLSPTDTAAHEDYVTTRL

[3] = off-target signal loss in HeLa-CEM21 co-culture – HeLa F-luc CTL cells, cherry-picked, counter-screen for HIV-1 Env fusion inhibitor project, dose response (AID 652040); format: functional, cell-based;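 further: potency for signal decrease marking cytotoxic or nonspecific inhibition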
[4] = HIV-1 AD8 envelope cell-cell fusion blockers – cherry-pick, dose response (AID 652062); format: functional, cell-based;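 further: luciferase signal from cell-cell fusion driven by HIV-1 clade B AD8 Env; potency is for inhibitors of fusion seen as a drop in luminescence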
[5] = blockers of HIV-1 ZM109 envelope-driven cell-cell fusion – HeLa effector, CEM target cells, luciferase, cherry-pick, dose response (AID 652058); format: functional, cell-based;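 further: luciferase signal from HIV-1 Env mediated cell-cell fusion of effector and target cells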
X-box-binding protein 1 = biological target: T4, X-box-binding protein 1 (Homo sapiens, UniProt P17861); format: functional, Cricetulus griseus;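 further: confirmatory dose-response counter-screen serving a CHOP assay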
T4 sequence (P17861 whole entry): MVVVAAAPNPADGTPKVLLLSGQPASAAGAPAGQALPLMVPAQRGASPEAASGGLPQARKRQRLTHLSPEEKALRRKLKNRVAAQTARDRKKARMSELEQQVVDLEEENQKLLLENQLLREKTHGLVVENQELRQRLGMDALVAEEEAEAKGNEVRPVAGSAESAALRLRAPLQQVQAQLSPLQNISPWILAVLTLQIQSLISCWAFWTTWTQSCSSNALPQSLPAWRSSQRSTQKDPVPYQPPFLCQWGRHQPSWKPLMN

H4 = assay: Luminescence Cell-Based Dose Response HTS to Identify Activators of 5'UTR Stem-Loop Driven Prion Protein mRNA Translation in H4 Neuroglioblastoma Cells. [Related pubchem assays: 1829 (Project Summary), 1814 (Primary HTS)]; format: functional; details: Homo sapiens
[6] = biological target: T5, DNA repair and recombination protein RAD54-like (Homo sapiens, UniProt Q92698); assay: RAD54 Holliday junction migration blockers – biochemical, fluorescence, cherry-picked samples, dose series, confirmation (AID 651657); format: functional
T5 sequence (Q92698 whole entry): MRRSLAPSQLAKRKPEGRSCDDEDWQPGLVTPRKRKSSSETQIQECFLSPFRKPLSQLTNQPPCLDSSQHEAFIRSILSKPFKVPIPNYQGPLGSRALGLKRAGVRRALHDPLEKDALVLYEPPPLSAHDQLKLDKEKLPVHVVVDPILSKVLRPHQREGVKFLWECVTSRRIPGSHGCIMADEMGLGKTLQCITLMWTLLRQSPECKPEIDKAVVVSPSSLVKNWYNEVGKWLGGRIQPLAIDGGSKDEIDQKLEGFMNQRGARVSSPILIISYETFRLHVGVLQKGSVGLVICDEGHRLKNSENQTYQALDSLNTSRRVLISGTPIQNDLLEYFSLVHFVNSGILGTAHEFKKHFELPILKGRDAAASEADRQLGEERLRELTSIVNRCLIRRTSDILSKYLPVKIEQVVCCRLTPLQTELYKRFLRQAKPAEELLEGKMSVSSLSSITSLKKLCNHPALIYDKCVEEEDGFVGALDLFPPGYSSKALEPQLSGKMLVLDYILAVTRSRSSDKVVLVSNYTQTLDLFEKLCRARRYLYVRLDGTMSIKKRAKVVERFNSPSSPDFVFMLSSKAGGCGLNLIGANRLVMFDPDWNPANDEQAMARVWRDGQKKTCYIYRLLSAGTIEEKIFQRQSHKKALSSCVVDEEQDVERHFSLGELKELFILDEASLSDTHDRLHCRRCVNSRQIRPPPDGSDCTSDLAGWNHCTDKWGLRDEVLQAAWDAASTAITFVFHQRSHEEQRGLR

[7] = Luminescence Cell-Based Dose Response HTS to Identify Activators of Luciferase Translation or Activity in H4 […] Cells. [Related pubchem assays: 1829 (Project Summary), 1814 (Primary HTS)]; format: functional
[8] = Luminescence Cell-Based Dose Confirmation HTS to Identify Activators of 5'UTR Stem-Loop Driven Alpha-Synuclein mRNA Translation in H4 Neuroglioblastoma Cells. [Related pubchem assays: 1829 (Project Summary), 1814 (Primary HTS)]; format: functional
Vero = assay: mammalian cell viability reduction – secondary assay, cytotoxicity control for West Nile virus antiviral project, dose response (AID 1650); format: functional; details: Chlorocebus sabaeus
[9] = intracellular Trypanosoma cruzi inhibitors in host cells – cell-based, plate reader, cherry-pick samples, set 3, dose response (AID 651818); format: functional;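 further: compounds incubated with infected cells for about four days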
H9c2 = assay: cells; format: functional, cell-based; details: Rattus norvegicus, H9c2, Myocardium;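 further: confirmatory concentration-response retest of ultra-high-throughput screening hits for modulation of myocardial damage; cell death induced by hydrogen peroxide oxidative stress; compound pretreatment for 60 min then peroxide exposure for 2 h; potency is for protecting the cells against peroxide damage rather than for killing them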
[10] = biological target: T6, DNA repair protein RAD52 homolog (Homo sapiens, UniProt P43351); format: functional, biochemical
T6 sequence (P43351 whole entry): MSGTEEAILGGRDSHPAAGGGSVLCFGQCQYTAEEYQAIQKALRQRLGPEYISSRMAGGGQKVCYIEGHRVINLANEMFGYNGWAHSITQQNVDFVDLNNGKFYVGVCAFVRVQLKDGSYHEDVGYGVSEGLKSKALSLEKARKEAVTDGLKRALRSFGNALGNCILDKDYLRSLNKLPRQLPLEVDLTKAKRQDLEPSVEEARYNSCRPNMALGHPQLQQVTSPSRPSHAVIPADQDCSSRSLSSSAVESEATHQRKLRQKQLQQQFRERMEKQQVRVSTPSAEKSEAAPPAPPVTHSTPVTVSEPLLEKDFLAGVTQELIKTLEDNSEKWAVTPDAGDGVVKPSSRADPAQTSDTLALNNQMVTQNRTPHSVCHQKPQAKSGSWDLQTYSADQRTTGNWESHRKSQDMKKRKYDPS

Procathepsin L, sequence (P07711 whole entry): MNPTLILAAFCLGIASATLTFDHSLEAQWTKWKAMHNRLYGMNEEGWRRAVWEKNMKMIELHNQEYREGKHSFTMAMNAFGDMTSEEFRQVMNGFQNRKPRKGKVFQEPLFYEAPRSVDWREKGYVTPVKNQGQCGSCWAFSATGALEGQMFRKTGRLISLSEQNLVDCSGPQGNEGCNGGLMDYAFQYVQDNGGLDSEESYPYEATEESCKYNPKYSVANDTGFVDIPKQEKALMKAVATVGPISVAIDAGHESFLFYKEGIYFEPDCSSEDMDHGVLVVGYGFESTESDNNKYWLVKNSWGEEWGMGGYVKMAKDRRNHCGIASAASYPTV

O=C(Nn1c(Cc2cccs2)nc2ccccc2c1=O)c1cccs1
IC50 (Aminopeptidase N): 11.9 µM (active) | IC50 (Procathepsin L): > 59.6 µM (not active) | IC50 (Aspartyl aminopeptidase): > 73.5 µM (not active)

O=C(Nc1ccccc1N1CCN(C(=O)c2ccccc2)CC1)c1ccc(Br)o1
AC50 [1]: 10.2 µM (active) | EC50 [2]: 0.596 µM (active) | AC50 [3]: 15.2 µM (active) | AC50 [4]: 11 µM (active) | AC50 [5]: 12.1 µM (active)

Oc1ccc(Br)cc1-c1nc2cnccn2c1NC1CCCCC1
Absolute IC50 (XBP1) (X-box-binding protein 1): 10 µM

Clc1ccc(COc2ccccc2CNCc2cccnc2)cc1
EC50 [2]: 2.99 µM (active)

CC1CCc2sc3nc(N4CCN(CCO)CC4)n4ncnc4c3c2C1 (stereo not drawn)
EC50 (H4): 34.7 µM (active) | AC50 [6]: 34.7 µM (active) | EC50 [7]: 8.04 µM (active) | EC50 [8]: 24.7 µM (active)

CCC(=O)N1N=C(c2c(O)nc3ccc(Cl)cc3c2-c2ccccc2)CC1c1ccco1 (stereo not drawn)
CC50 (Vero): 73.3 µM (active) | Absolute IC50 (XBP1) (X-box-binding protein 1): 10 µM

CCCNCc1cc(Br)ccc1OCC(=O)NCCc1ccccc1
EC50 [2]: 0.841 µM (active)

CCC(C)NCCOCCOc1ccccc1-c1ccccc1 (stereo not drawn)
EC50 [2]: 1.19 µM (active)

C[C@@H]1CN([C@H](C)CO)C(=O)c2cccc(NC(=O)C3CCCCC3)c2O[C@H]1CN(C)Cc1ccc(Cl)c(Cl)c1
AC50 [9]: 3.93 µM (active)

C[C@H]1CN([C@@H](C)CO)C(=O)c2cc(NS(=O)(=O)c3ccc(F)cc3)ccc2O[C@@H]1CN(C)Cc1ccc(Oc2ccccc2)cc1
AC50 [9]: 3.72 µM (active)

COc1cc2nc(Nc3ccc(F)cc3)nc(N)c2cc1OC
IC50 (H9c2): > 79 µM (inactive) | AC50 [6]: 49.9 µM (active) | AC50 [10]: 7.26 µM (active)
